# Measurements reported in patent US4125615A, “2-[4-(P-Aminobenzyl)-1-piperazinyl]-8-ethyl-5,8-dihydro-5-oxopyrido[2,3-d]p y” (priority 1976, dated 1978).
# Read-outs that look alike come from different tables or passages of the source.
# How the values were obtained:
# [1] = system: Salmonella typhimurium S-9; assay: In vitro antibacterial activity (MIC), Salmonella typhimurium S-9; assay type: cell-based; details: Salmonella enterica
# Method: (§1) (1) In vitro antibacterial activity against 9 strains of bacteria (Gram-positive bacteria: 4 strains, Gram-negative bacteria: 5 strains)
# (§2) The test compounds were dissolved in distilled water at a concentration of 1 mg/ml with equimolar NaOH. Then graded concentrations (300, 100, 30, 10, 3 μg/ml, etc.) were made by serial dilution with distilled water. Each solution of test compound (0.5 ml) was pipetted into 4.5 ml of medium in a tube. The media used were Brain Heart Infusion Broth, pH 7.4, for Streptococcus and nutrient broth [10 g of Polypepton, 10 g of Meat Extract, and 2.5 g of NaCl in 1 liter of distilled water], pH 7.0, for the other bacteria. One drop of a bacterial suspension freshly cultured and diluted so as to contain 10 to 100 minimal growing units in the medium was inoculated into the tube. The tubes were incubated at 37° C. for 48 hours. The minimal inhibitor concentration (MIC) was defined as the lowest concentration in which no visible growth of the bacteria was detected.
# [2] = system: Staphylococcus aureus No. 50774; assay: In vivo efficacy against the intravenous infection of mice by Staphylococcus aureus No. 50774; details: NO.50774, 336 h, male ddY mice, iv infection 6 LD50, oral, twice (5 minutes and 6 hours after infection), survival after 2 weeks
# Method: (2) in vivo efficacy against the intravenous infection of mice by Staphylococcus aureus No. 50774
# (§3) Each group of 8 male mice (ddY strain, approximately 20 g) was intravenously infected with 6 LD50 of Staphylococcus aureus No. 50774 in 0.85% saline. The test compounds were each suspended in 0.2% carboxymethyl cellulose and administered orally in graded doses (200, 100, 50, 25, 12.5, 6.3, 3.1 mg/kg, etc.) to the infected mice twice, about 5 minutes and 6 hours after infection. Survival rates were determined after 2 weeks and the ED50 was calculated in accordance with Probit method.
# [3] = system: Staphylococcus aureus No. 10; assay: In vitro antibacterial activity (MIC), Staphylococcus aureus No. 10; assay type: cell-based
# Method: as §1, §2
# Staphylococcus aureus [4] = details: compounds of U.S. Pat. Nos. 3,887,557 and 3,950,338; cited from earlier work
# [5] = system: Streptococcus pyogenes A65; assay: In vivo efficacy against the intraperitoneal infection of mice by Streptococcus pyogenes A65; details: A65, 336 h, male ddY mice, ip infection 4 LD50, oral, twice (5 minutes and 6 hours after infection), survival after 2 weeks
# Method: as §3
# (3) In vivo efficacy against the intraperitoneal infection of mice by Streptococcus pyogenes A65
# Each group of 8 male mice (ddY strain, approximately 20 g) was intraperitoneally infected with 4 LD50 of Streptococcus pyogenes A65 suspended in Brain Heart Infusion Broth. The subsequent procedures were the same as those described in (2).
# Escherichia coli P-5101 [6] = assay: In vitro antibacterial activity (MIC), Escherichia coli P-5101; assay type: cell-based
# Method: as §1, §2
# Staphylococcus aureus [7] = details: compounds of U.S. Pat. Nos. 3,887,557 and 3,950,338; cited from earlier work; remark: listed apart in the source
# [8] = system: Staphylococcus aureus Terajima; assay: In vitro antibacterial activity (MIC), Staphylococcus aureus Terajima; assay type: cell-based
# Method: as §1, §2
# [9] = system: Streptococcus pyogenes A65; assay: In vitro antibacterial activity (MIC), Streptococcus pyogenes A65; assay type: cell-based; details: Brain Heart Infusion Broth pH 7.4, 37° C., 48 hours
# Method: as §1, §2
# Shigella sonnei EW33 = assay: In vitro antibacterial activity (MIC), Shigella sonnei EW33; assay type: cell-based; details: nutrient broth pH 7.0, 37° C., 48 hours
# Method: as §1, §2
# Escherichia coli K-12 = assay: In vitro antibacterial activity (MIC), Escherichia coli K-12; assay type: cell-based
# Method: as §1, §2
# Proteus vulgaris OX-19 = assay: In vitro antibacterial activity (MIC), Proteus vulgaris OX-19; assay type: cell-based
# Method: as §1, §2
# [10] = system: Staphylococcus aureus No. 50774; assay: In vitro antibacterial activity (MIC), Staphylococcus aureus No. 50774; assay type: cell-based
# Method: as §1, §2
# [11] = system: Gram-positive and Gram-negative bacteria; assay: Antibacterial activity against Gram-positive and Gram-negative bacteria (summary statement); details: in words
# Escherichia coli P-5101 [12] = assay: In vivo efficacy against the intraperitoneal infection of mice by Escherichia coli p-5101; details: P5101, 336 h, male ddY mice, ip infection 9 LD50, 4% gastric mucin, oral, twice (5 minutes and 6 hours after infection), survival after 2 weeks
# Method: as §3
# (4) in vivo efficacy against the intraperitoneal infection of mice by Escherichia coli p-5101
# Each group of 8 male mice (ddY strain, approximately 20 g) was intraperitoneally infected with 9 LD50 of Escherichia coli p-5101 suspended in Trypto-Soy Broth supplemented with 4% gastric mucin. The subsequent procedures were the same as those described in (2).
# mice = assay: in vivo
# Description: (§4) (5) acute toxicity in mice
# (§5) Female ddY strain mice, weighing 25 to 33 g, were used. Test compounds were suspended in 0.2% carboxymethyl cellulose for oral administration, and dissolved in NaOH solution (final pH 8.8-9.2) for intravenous administration.
# in vivo = details: mouse, in vivo, female ddY mice, Behrens-Kaerber method
# Description: as §4, §5
# Staphylococcus aureus [13] = details: Antimicrob. Agents Chemother.; cited from earlier work
# [14] = Staphylococcus aureus No. 10, nutrient broth pH 7.0, 37° C., 48 hours, read-out: MIC
# [15] = P5101, Escherichia coli P-5101, nutrient broth pH 7.0, 37° C., 48 hours, read-out: MIC
# [16] = Staphylococcus aureus Terajima, nutrient broth pH 7.0, 37° C., 48 hours, read-out: MIC
# [17] = Escherichia coli, K12, 48 h, pH 7
# [18] = Proteus vulgaris, OX19, 48 h, pH 7
# [19] = Staphylococcus aureus, NO.50774, 48 h, pH 7
# [20] = OX19, Proteus vulgaris OX-19, nutrient broth pH 7.0, 37° C., 48 hours, read-out: MIC
# [21] = K12, Escherichia coli K-12, nutrient broth pH 7.0, 37° C., 48 hours, read-out: MIC
# [22] = Escherichia coli, P5101, 48 h, pH 7
# [23] = oral, 7 days, read-out: LD50 (oral administration)
# [24] = Staphylococcus aureus No. 50774, nutrient broth pH 7.0, 37° C., 48 hours, read-out: MIC
SMILES,"MIC ([1]; TYPHIMURIUM, 48 h, pH 7)",ED50 [2],"MIC [3, 14]",in vivo activities against Staphylococcus aureus (Staphylococcus aureus [4]),ED50 [5],MIC (Escherichia coli P-5101 [6]; [15]),in vitro activities against Staphylococcus aureus (Staphylococcus aureus [7]),"MIC [8, 16]",MIC [9],MIC (Shigella sonnei EW33),MIC (Escherichia coli K-12; [17]),MIC (Proteus vulgaris OX-19; [18]),"MIC [10, 19]",MIC (Proteus vulgaris OX-19; [20]),MIC (Escherichia coli K-12; [21]),ED50 (Escherichia coli P-5101 [12]),MIC (Escherichia coli P-5101 [6]; [22]),LD50 at 168 h (in vivo; [23]),effect on systemic infection by Staphylococcus aureus (Staphylococcus aureus [13]),"MIC [10, 24]",further results
"CCn1cc(C(=O)O)c(=O)c2cnc(N3CCN(Cc4ccccc4)CC3)nc21 [Compound 1, 2-(4-Benzyl-1-piperazinyl)-8-ethyl-5,8-dihydro-5-oxopyrido[2,3-d]-pyrimidine-6-carboxylic acid]",3 µg/mL,~50 mg/kg,10 µg/mL,weak,> 100 mg/kg,10 µg/mL,relatively strong,10 µg/mL,100 µg/mL,3 µg/mL,3 µg/mL,3 µg/mL,3 µg/mL,–,–,–,–,–,–,–,–
"CCn1cc(C(=O)O)c(=O)c2cnc(N3CCN(Cc4ccc(OC)cc4)CC3)nc21 [Compound 2, 2-[4-(p-Methoxybenzyl)-1-piperazinyl]-8-ethyl-5,8-dihydro-5-oxopyrido[2,3-d]pyrimidine-6-carboxylic acid]",3 µg/mL,54.5 mg/kg,10 µg/mL,weak,> 100 mg/kg,10 µg/mL,relatively strong,10 µg/mL,100 µg/mL,3 µg/mL,3 µg/mL,–,3 µg/mL,10 µg/mL,–,–,–,–,–,–,–
"CCn1cc(C(=O)O)c(=O)c2cnc(N3CCN(Cc4ccc(Cl)cc4)CC3)nc21 [Compound 3, 2-[4-(p-Chlorobenzyl)-1-piperazinyl]-8-ethyl-5,8-dihydro-5-oxopyrido[2,3-d]pyrimidine-6-carboxylic acid]",–,> 100 mg/kg,10 µg/mL,weak,> 100 mg/kg,30 µg/mL,relatively strong,10 µg/mL,30 µg/mL,3 µg/mL,–,–,3 µg/mL,10 µg/mL,10 µg/mL,–,–,–,–,–,"MIC ([1]; Salmonella typhimurium S-9, nutrient broth pH 7.0, 37° C., 48 hours, read-out: MIC): 10 µg/mL"
"CCn1cc(C(=O)O)c(=O)c2cnc(N3CCN(Cc4ccc(N)cc4)CC3)nc21 [Compound AT-1826, 2-[4-(p-Aminobenzyl)-1-piperazinyl]-8-ethyl-5,8-dihydro-5-oxopyrido[2,3-d]pyrimidine-6-carboxylic acid]",3 µg/mL,7.2 mg/kg,–,–,47.7 mg/kg,–,–,–,30 µg/mL,1 µg/mL,1 µg/mL,3 µg/mL,1 µg/mL,–,–,35.6 mg/kg,3 µg/mL,> 2000 mg/kg,–,–,"MIC ([3]; Staphylococcus aureus, NO.10, 48 h, pH 7): 3 µg/mL; antibacterial activities against Gram-positive and Gram-negative bacteria [11]: excellent antibacterial activities; MIC ([8]; Staphylococcus aureus, 48 h, pH 7): 3 µg/mL; toxicity (mice; in words): low toxicity; LD50 at 168 h (in vivo; iv, NaOH solution final pH 8.8-9.2, 7 days, read-out: LD50 (intravenous administration)): 354 mg/kg"
"CCn1cc(C(=O)O)c(=O)c2cnc(N3CCCC3)nc21 [Compound PA, 2-pyrrolidino-8-ethyl-5,8-dihydro-5-oxopyrido [2,3-d]pyrimidine-6-carboxylic acid]",3 µg/mL,> 200 mg/kg,10 µg/mL,–,> 100 mg/kg,10 µg/mL,–,10 µg/mL,300 µg/mL,3 µg/mL,–,–,–,1 µg/mL,1 µg/mL,36.6 mg/kg,–,> 2000 mg/kg,only extremely weak effect,10 µg/mL,"LD50 (intravenous administration) (mice; female ddY mice, iv, NaOH solution final pH 8.8-9.2, 7 days, Behrens-Kaerber method): 268 mg/kg"
"CCn1cc(C(=O)O)c(=O)c2cnc(N3CCNCC3)nc21 [Compound PPA, 2-(1-piperazinyl)-8-ethyl-5,8-dihydro-5-oxopyrido [2,3-d]pyrimidine-6-carboxylic acid]",1 µg/mL,238 mg/kg,10 µg/mL,–,> 100 mg/kg,–,–,30 µg/mL,100 µg/mL,1 µg/mL,1 µg/mL,3 µg/mL,–,–,–,21.2 mg/kg,1 µg/mL,–,only extremely weak effect,10 µg/mL,–
